# Source: article PMC9296036, “A peptide interfering with the dimerization of oncogenic KITENIN protein and its stability suppresses colorectal tumour progression” (Clinical and Translational Medicine, 2022)
# Ends that are not written are not given here.
# Experiment: Detection of KDIP and truncated forms in tumour and liver tissue by LC-MS/MS (MRM) after intravenous injection
# Format: in vivo, mouse
# Settings: tissues collected 20 min after fifth intravenous injection of KDIP 5 mg/kg, below the limit of detection
# Procedure: At 20 min after fifth intravenous injection of KDIP, tumour and liver tissues were collected, immediately frozen using liquid nitrogen and ground with a pestle and mortar. One part of resultant powder by weight was homogenized with two parts of lysis buffer containing 8‐M urea, 25‐mM Tris–HCl (pH 8.5) by volume and was placed in Eppendorf tubes. This lysate was sonicated three times for 2 s with 2‐s intervals of rest at 20% amplitude on ice. Insoluble debris was removed by obtaining supernatant after centrifugation at 14 000 g, 4°C for 15 min.
# Peptide extraction from serum or tissue lysate was performed by solid‐phase extraction using Oasis HLB Cartridge 1‐cm^3 (30 mg). HLB cartridges were conditioned using ACN (1 ml) and 50% ACN, .5% FA (1 ml), followed by equilibration using .5% FA (2 ml). A volume of 10‐μl serum and 20 μl of tissue lysate were added by .5% FA to be 1 ml and were loaded on equilibrated cartridges. Cartridges were washed with .5% FA (3 ml), and then peptide was eluted by 50% ACN, .5% FA (500 μl). Eluates were vacuum‐dried using Speed‐Vac and were stored at −80°C until use. Dried samples were reconstituted in .5% FA 50 and 5 μl of sample was loaded on column for LC–MS/MS analysis.
# Each sample was analysed using an Agilent 1100 Series high‐performance liquid chromatography pump (Agilent Technologies, USA) coupled to an LTQ linear ion trap mass spectrometer (Thermo Finnigan, USA). Separation of peptide was carried out on a homemade C18‐fused silica column (100‐μm internal diameter) with nano‐electrospray ionization interface. […] Peptide was quantified by multiple reaction monitoring (MRM) in positive ion mode, with a spray voltage of 2.3 kV. […] Furthermore, truncated forms ([…], […]) of KDIP that were detected during stability test were also analysed by following transitions: 468.5 → 404.8 (b16 ^+5), 468.5 → 444.85 (b18 ^+5), 468.5 → 505.7 (b16 ^+4), 468.5 → 551.35 (b18 + H2O^+4), 468.5 → 555.7 (b18 ^+4), 528.45 → 448.85 (b14 ^+4), 528.45 → 499.0 (b16 ^+4), 528.45 → 598.15 (b14 ^+3), 528.45 → 659.25 (b16 + H2O^+3) and 528.45 → 664.95 (b16 ^+3). […]
sequence,measurement,value
YARVRRRGPRRWRLVSDEAV [KDIP],detection in regressed tumour tissues or liver by mass spectrometry,not detected
